# Source: patent US12459932B2, “KIF18A inhibitors” (AMGEN INC., priority 2018, dated 2025)
# Target: T1, Recombinant human KIF18A (1-467 His-tagged) (Homo sapiens, UniProt Q8NI77)
# T1 construct: Recombinant human KIF18A (1-467 His-tagged) protein; His
# Assay: KIF18A Enzyme Assay: microtubule-stimulated ATPase activity (ADP-Glo)
# Assay type: biochemical
# Settings: 30 nM KIF18A, 30 μg/mL pig microtubules, ATP 75 μM (Km), ADP-Glo luminescence
# Procedure, shortened: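 Measures microtubule-stimulated ATPase activity as ADP formed, detected by luminescence. Compounds were tested as 2-fold serial dilutions over 22 points. IC50 values came from four-parameter logistic fits.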
# T1 sequence (Q8NI77 1-467): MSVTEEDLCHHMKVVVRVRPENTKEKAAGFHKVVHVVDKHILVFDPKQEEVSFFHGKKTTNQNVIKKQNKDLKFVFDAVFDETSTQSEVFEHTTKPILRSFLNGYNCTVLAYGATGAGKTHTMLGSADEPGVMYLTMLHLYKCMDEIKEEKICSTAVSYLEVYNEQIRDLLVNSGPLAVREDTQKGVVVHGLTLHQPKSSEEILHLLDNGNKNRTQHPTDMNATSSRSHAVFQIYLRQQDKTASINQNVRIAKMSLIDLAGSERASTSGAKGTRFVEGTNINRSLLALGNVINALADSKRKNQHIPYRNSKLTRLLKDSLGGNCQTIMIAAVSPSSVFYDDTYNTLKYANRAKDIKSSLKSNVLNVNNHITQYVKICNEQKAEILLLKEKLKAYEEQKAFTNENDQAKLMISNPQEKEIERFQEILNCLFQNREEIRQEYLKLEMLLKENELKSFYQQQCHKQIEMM
# T1 sequence (P02550 whole entry partner): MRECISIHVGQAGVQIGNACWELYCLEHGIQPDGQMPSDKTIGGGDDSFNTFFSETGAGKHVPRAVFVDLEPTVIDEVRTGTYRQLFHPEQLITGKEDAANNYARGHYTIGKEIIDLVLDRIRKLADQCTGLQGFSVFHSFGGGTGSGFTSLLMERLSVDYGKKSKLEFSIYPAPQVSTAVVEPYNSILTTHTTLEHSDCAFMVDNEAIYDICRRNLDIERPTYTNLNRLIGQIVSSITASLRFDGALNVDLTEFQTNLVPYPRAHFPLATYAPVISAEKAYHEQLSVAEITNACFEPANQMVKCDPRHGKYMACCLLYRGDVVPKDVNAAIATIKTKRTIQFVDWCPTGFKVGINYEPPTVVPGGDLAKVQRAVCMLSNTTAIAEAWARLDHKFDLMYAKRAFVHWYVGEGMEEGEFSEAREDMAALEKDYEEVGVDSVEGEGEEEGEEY
# T1 sequence (P02554 whole entry partner): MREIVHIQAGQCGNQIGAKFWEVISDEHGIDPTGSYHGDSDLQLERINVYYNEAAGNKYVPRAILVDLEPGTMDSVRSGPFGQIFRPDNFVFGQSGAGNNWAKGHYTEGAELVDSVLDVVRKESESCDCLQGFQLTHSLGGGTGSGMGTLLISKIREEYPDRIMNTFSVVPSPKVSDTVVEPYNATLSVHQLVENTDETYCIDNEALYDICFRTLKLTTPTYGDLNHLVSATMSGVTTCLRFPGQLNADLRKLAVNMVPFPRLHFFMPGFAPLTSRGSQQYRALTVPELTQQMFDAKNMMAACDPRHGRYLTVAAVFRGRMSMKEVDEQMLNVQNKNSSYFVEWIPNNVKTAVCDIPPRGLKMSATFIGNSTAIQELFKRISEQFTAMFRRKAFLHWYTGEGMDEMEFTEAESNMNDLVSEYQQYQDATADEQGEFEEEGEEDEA
row,IC50 [nM],Structure (SMILES)
1,81,"Cc1cc(NC(=O)c2ccc(NS(=O)(=O)C3COC3)cc2N2CCC3(CC2)CC3)nc(N2CCC(F)(F)CC2)c1 [Example 7-11, N-(6-(4,4-Difluoropiperidin-1-yl)-4-methylpyridin-2-yl)-4-(oxetane-3-sulfonamido)-2-(6-azaspiro[2.5]octan-6-yl)benzamide]"
2,49,"Cc1cc(NC(=O)c2ccc(NS(C)(=O)=O)cc2N2CCC3(CC2)CC3)nc(N2CCC(F)(F)CC2)c1 [Example 7-21, N-(6-(4,4-Difluoropiperidin-1-yl)-4-methylpyridin-2-yl)-4-(methylsulfonamido)-2-(6-azaspiro[2.5]octan-6-yl)benzamide]"
3,103,"Cc1cc(NC(=O)c2ccc(NS(=O)(=O)C(C)(C)C)cc2N2CCC3(CC2)CC3)nc(N2CCC(F)(F)CC2)c1 [Example 7-22, N-(6-(4,4-Difluoropiperidin-1-yl)-4-methylpyridin-2-yl)-4-((1,1-dimethylethyl)sulfonamido)-2-(6-azaspiro[2.5]octan-6-yl)benzamide]"
4,110,"Cc1cc(NC(=O)c2ccc(NS(=O)(=O)C3CCC3)cc2N2CCC3(CC2)CC3)nc(N2CCC(F)(F)CC2)c1 [Example 7-23, 4-(Cyclobutanesulfonamido)-N-(6-(4,4-difluoropiperidin-1-yl)-4-methylpyridin-2-yl)-2-(6-azaspiro[2.5]octan-6-yl)benzamide]"
5,186,"Cc1cc(NC(=O)c2ccc(NS(=O)(=O)CC3CC3)cc2N2CCC3(CC2)CC3)nc(N2CCC(F)(F)CC2)c1 [Example 7-24, 4-((Cyclopropylmethyl)sulfonamido)-N-(6-(4,4-difluoropiperidin-1-yl)-4-methylpyridin-2-yl)-2-(6-azaspiro[2.5]octan-6-yl)benzamide]"
6,39,"Cc1cc(NC(=O)c2ccc(NS(=O)(=O)C3CC3)cc2N2CCC3(CC2)CC3)nc(N2CCC(F)(F)CC2)c1 [Example 7-25, 4-(Cyclopropanesulfonamido)-N-(6-(4,4-difluoropiperidin-1-yl)-4-methylpyridin-2-yl)-2-(6-azaspiro[2.5]octan-6-yl)benzamide]"
7,23,"O=C(Nc1cccc(N2CCC(F)(F)CC2)n1)c1ccc(NS(=O)(=O)CCO)cc1N1CCC2(CC1)CC2 [Example 7-26, N-(6-(4,4-Difluoropiperidin-1-yl)pyridin-2-yl)-4-((2-hydroxyethyl)sulfonamido)-2-(6-azaspiro[2.5]octan-6-yl)benzamide]"
8,14,"Cc1cc(NC(=O)c2ccc(NS(C)(=O)=O)cc2N2CCC3(CC2)CC3)nc(N2CC(F)(F)C2)c1 [Example 7-27, N-(6-(3,3-Difluoroazetidin-1-yl)-4-methylpyridin-2-yl)-4-(methylsulfonamido)-2-(6-azaspiro[2.5]octan-6-yl)benzamide]"
9,68,"Cc1cc(NC(=O)c2ccc(NS(=O)(=O)C(C)C)cc2N2CCC3(CC2)CC3)nc(N2CC(F)(F)C2)c1 [Example 7-28, N-(6-(3,3-Difluoroazetidin-1-yl)-4-methylpyridin-2-yl)-4-((1-methylethyl)sulfonamido)-2-(6-azaspiro[2.5]octan-6-yl)benzamide]"
10,134,"Cc1cc(NC(=O)c2ccc(NS(=O)(=O)C(C)(C)C)cc2N2CCC3(CC2)CC3)nc(N2CC(F)(F)C2)c1 [Example 7-29, N-(6-(3,3-Difluoroazetidin-1-yl)-4-methylpyridin-2-yl)-4-((1,1-dimethylethyl)sulfonamido)-2-(6-azaspiro[2.5]octan-6-yl)benzamide]"
11,78,"Cc1cc(NC(=O)c2ccc(NS(=O)(=O)C3CCC3)cc2N2CCC3(CC2)CC3)nc(N2CC(F)(F)C2)c1 [Example 7-30, 4-(Cyclobutanesulfonamido)-N-(6-(3,3-difluoroazetidin-1-yl)-4-methylpyridin-2-yl)-2-(6-azaspiro[2.5]octan-6-yl)benzamide]"
12,59,"Cc1cc(NC(=O)c2ccc(NS(=O)(=O)CC3CC3)cc2N2CCC3(CC2)CC3)nc(N2CC(F)(F)C2)c1 [Example 7-31, 4-((Cyclopropylmethyl)sulfonamido)-N-(6-(3,3-difluoroazetidin-1-yl)-4-methylpyridin-2-yl)-2-(6-azaspiro[2.5]octan-6-yl)benzamide]"
13,25,"Cc1cc(NC(=O)c2ccc(NS(=O)(=O)C3COC3)cc2N2CCC3(CC2)CC3)nc(N2CC(F)(F)C2)c1 [Example 7-32, N-(6-(3,3-Difluoroazetidin-1-yl)-4-methylpyridin-2-yl)-4-(oxetane-3-sulfonamido)-2-(6-azaspiro[2.5]octan-6-yl)benzamide]"
14,41,"Cc1cc(NC(=O)c2ccc(NS(=O)(=O)C3CC3)cc2N2CCC3(CC2)CC3)nc(N2CC(F)(F)C2)c1 [Example 7-34, 4-(Cyclopropanesulfonamido)-N-(6-(3,3-difluoroazetidin-1-yl)-4-methylpyridin-2-yl)-2-(6-azaspiro[2.5]octan-6-yl)benzamide]"

# More lines, now with the values behind:
row,Structure (SMILES),IC50 [nM]
1,"C[C@@H]1CN(c2cccc(NC(=O)c3ccc(NS(=O)(=O)CCO)cc3N3CCC4(CC3)CC4)n2)CCO1 [Example 7-12, (R)-4-((2-Hydroxyethyl)sulfonamido)-N-(6-(2-methylmorpholino)pyridin-2-yl)-2-(6-azaspiro[2.5]octan-6-yl)benzamide]",30
2,"C[C@H]1CN(c2cccc(NC(=O)c3ccc(NS(=O)(=O)CCO)cc3N3CCC4(CC3)CC4)n2)CCO1 [Example 7-13, (S)-4-((2-Hydroxyethyl)sulfonamido)-N-(6-(2-methylmorpholino)pyridin-2-yl)-2-(6-azaspiro[2.5]octan-6-yl)benzamide]",46
3,"C[C@@H]1CN(c2cccc(NC(=O)c3ccc(NS(=O)(=O)CCC(F)(F)F)cc3N3CCC4(CC3)CC4)n2)CCO1 [Example 7-14, (R)-N-(6-(2-Methylmorpholino)pyridin-2-yl)-2-(6-azaspiro[2.5]octan-6-yl)-4-((3,3,3-trifluoropropyl)sulfonamido)benzamide]",343
4,"C[C@@H]1CN(c2cccc(NC(=O)c3ccc(NS(=O)(=O)C4(F)CC4)cc3N3CCC4(CC3)CC4)n2)CCO1 [Example 7-15, (R)-4-((1-Fluorocyclopropane)-1-sulfonamido)-N-(6-(2-methylmorpholino)pyridin-2-yl)-2-(6-azaspiro[2.5]octan-6-yl)benzamide]",90
5,"C[C@@H]1CN(c2cccc(NC(=O)c3ccc(NS(=O)(=O)C(C)(C)C)cc3N3CCC4(CC3)CC4)n2)CCO1 [Example 7-16, (R)-4-((1,1-Dimethylethyl)sulfonamido)-N-(6-(2-methylmorpholino)pyridin-2-yl)-2-(6-azaspiro[2.5]octan-6-yl)benzamide]",67
6,"Cc1cc(NC(=O)c2ccc(NS(=O)(=O)CCO)cc2N2CCC3(CC2)CC3)nc(N2CCOCC2)c1 [Example 7-17, 4-((2-Hydroxyethyl)sulfonamido)-N-(4-methyl-6-morpholinopyridin-2-yl)-2-(6-azaspiro[2.5]octan-6-yl)benzamide]",17
7,"Cc1cc(NC(=O)c2ccc(NS(=O)(=O)CCO)cc2N2CCC3(CC2)CC3)nc(N2CCO[C@H](C)C2)c1 [Example 7-18, (R)-4-((2-Hydroxyethyl)sulfonamido)-N-(4-methyl-6-(2-methylmorpholino)pyridin-2-yl)-2-(6-azaspiro[2.5]octan-6-yl)benzamide]",74
8,"Cc1cc(NC(=O)c2ccc(NS(=O)(=O)CCO)cc2N2CCC3(CC2)CC3)nc(N2CCO[C@@H](C)C2)c1 [Example 7-19, (S)-4-((2-Hydroxyethyl)sulfonamido)-N-(4-methyl-6-(2-methylmorpholino)pyridin-2-yl)-2-(6-azaspiro[2.5]octan-6-yl)benzamide]",49
9,"O=C(Nc1cccc(N2CCOCC2)n1)c1ccc(NS(=O)(=O)CCO)cc1N1CCC2(CC1)CC2 [Example 7-20, 4-((2-Hydroxyethyl)sulfonamido)-N-(6-morpholinopyridin-2-yl)-2-(6-azaspiro[2.5]octan-6-yl)benzamide]",36
10,"C[C@@H]1CN(c2cccc(NC(=O)c3ccc(NS(=O)(=O)CCF)cc3N3CCC4(CC3)CC4)n2)CCO1 [Example 7-35, (R)-4-((2-Fluoroethyl)sulfonamido)-N-(6-(2-methylmorpholino)pyridin-2-yl)-2-(6-azaspiro[2.5]octan-6-yl)benzamide]",24
11,"Cc1cc(NC(=O)c2ccc(NS(=O)(=O)CF)cc2N2CCC3(CC2)CC3)nc(N2CCO[C@H](C)C2)c1 [Example 7-36, (R)-4-((Fluoromethyl)sulfonamido)-N-(4-methyl-6-(2-methylmorpholino)pyridin-2-yl)-2-(6-azaspiro[2.5]octan-6-yl)benzamide]",62
12,"CCS(=O)(=O)Nc1ccc(C(=O)Nc2cccc(N3CCO[C@H](C)C3)n2)c(N2CCC3(CC2)CC3)c1 [Example 7-37, (R)-4-(Ethylsulfonamido)-N-(6-(2-methylmorpholino)pyridin-2-yl)-2-(6-azaspiro[2.5]octan-6-yl)benzamide]",50
13,"C[C@@H]1CN(c2cccc(NC(=O)c3ccc(NS(=O)(=O)CF)cc3N3CCC4(CC3)CC4)n2)CCO1 [Example 7-38, (R)-4-((Fluoromethyl)sulfonamido)-N-(6-(2-methylmorpholino)pyridin-2-yl)-2-(6-azaspiro[2.5]octan-6-yl)benzamide]",48
14,"C[C@@H]1CN(c2cccc(NC(=O)c3ccc(NS(=O)(=O)CC(F)(F)F)cc3N3CCC4(CC3)CC4)n2)CCO1 [Example 7-39, (R)-N-(6-(2-methylmorpholino)pyridin-2-yl)-2-(6-azaspiro[2.5]octan-6-yl)-4-((2,2,2-trifluoroethyl)sulfonamido)benzamide]",135
15,"C[C@@H]1CN(c2cccc(NC(=O)c3ccc(NS(=O)(=O)C(F)(F)F)cc3N3CCC4(CC3)CC4)n2)CCO1 [Example 7-41, (R)-N-(6-(2-Methylmorpholino)pyridin-2-yl)-2-(6-azaspiro[2.5]octan-6-yl)-4-((trifluoromethyl)sulfonamido)benzamide]",207
16,"C[C@@H]1CN(c2cccc(NC(=O)c3ccc(NS(=O)(=O)CC(C)(C)O)cc3N3CCC4(CC3)CC4)n2)CCO1 [Example 7-42, (R)-4-((2-Hydroxy-2-methylpropyl)sulfonamido)-N-(6-(2-methylmorpholino)pyridin-2-yl)-2-(6-azaspiro[2.5]octan-6-yl)benzamide]",111
